ChEMBL document CHEMBL1201862, “PubChem BioAssay data set” (2004)
Active and inactive are the calls of the source. Rule as the data show it, for most assays here: actives have a measured EC50 and inactives only a lower limit.

Columns and labels:
[1] = molecular target: T1, Endoribonuclease toxin MazF (Escherichia coli K-12, UniProt P0AE70); assay: activation of MazEF endoribonuclease cleavage – biochemical, fluorescence, single-stranded RNA substrate, uHTS hits, dose response (AID 588481); assay type: functional
T1 sequence (P0AE70 whole entry): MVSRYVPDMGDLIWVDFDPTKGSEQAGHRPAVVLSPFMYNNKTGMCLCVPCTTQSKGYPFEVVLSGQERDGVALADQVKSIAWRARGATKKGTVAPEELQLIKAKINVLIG

[2] = molecular target: T1, Endoribonuclease toxin MazF; assay: substrate-only fluorescence increase artefacts – biochemical, single-stranded RNase substrate, counter-screen for MazEF activator project, dose response (AID 588502); assay type: functional
[3] = NIH-3T3 fibroblast cytotoxicity, dose response, cytotoxicity control, cell-based, fluorescence, Alamar Blue, secondary assay (AID 2327); assay type: functional;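 also: NIH-3T3 mouse fibroblasts cultured with fluconazole at 8 µg/mL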
[4] = fluconazole-exposed Candida albicans growth modulators – fluorescence, retest, confirmation (AID 2467); assay type: functional, cell-based
[5] = molecular target: T2, Serine/threonine-protein phosphatase (Candida dubliniensis (strain CD36 / CBS 7987 / NCPF 3949 / NRRLY-17841) (Yeast), UniProt B9W6M3); assay: blockers of CaCl2-induced CDRE-lacZ signaling – S. cerevisiae, luminescence, secondary, dose response (AID 2388); assay type: functional, cell-based;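 also: yeast reporter cells carrying a calcineurin-responsive lacZ construct stimulated with calcium chloride; luminescent beta-galactosidase reporter signal in whole cells rather than isolated phosphatase activity; potency for inhibition where a drop in reporter signal means calcineurin blockade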
T2 sequence (B9W6M3 whole entry): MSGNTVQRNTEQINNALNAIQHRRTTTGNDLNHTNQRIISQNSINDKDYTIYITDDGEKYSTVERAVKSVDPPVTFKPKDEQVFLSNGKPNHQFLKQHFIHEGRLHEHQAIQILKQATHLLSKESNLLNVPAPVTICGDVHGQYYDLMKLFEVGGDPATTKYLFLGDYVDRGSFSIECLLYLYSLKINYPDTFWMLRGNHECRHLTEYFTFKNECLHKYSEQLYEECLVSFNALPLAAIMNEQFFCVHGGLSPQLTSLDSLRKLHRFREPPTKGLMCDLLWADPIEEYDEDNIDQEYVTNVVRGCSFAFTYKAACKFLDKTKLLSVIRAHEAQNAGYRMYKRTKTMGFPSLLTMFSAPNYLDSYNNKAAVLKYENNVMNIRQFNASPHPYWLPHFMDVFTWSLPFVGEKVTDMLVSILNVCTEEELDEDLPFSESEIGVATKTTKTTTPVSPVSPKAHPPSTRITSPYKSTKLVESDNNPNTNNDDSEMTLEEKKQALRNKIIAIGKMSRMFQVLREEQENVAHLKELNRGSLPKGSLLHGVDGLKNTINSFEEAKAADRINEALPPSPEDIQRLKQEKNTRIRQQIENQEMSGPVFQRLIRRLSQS

[6] = Luminescence Cell-Based Dose Retest to Confirm Inhibitors of Cancer Stem Cells. [Related pubchem assays (depositor defined):AID2717, AID2721]; assay type: functional, Homo sapiens; settings: Homo sapiens
[7] = molecular target: ATP-dependent molecular chaperone HSP82 (Candida albicans (strain WO-1) (Yeast), UniProt C4YTQ8); assay: steroid-induced GRE reporter decrease in yeast – S. cerevisiae, luminescence, Hsp90 inhibitor project, dose response (AID 2400); assay type: functional, cell-based;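 also: beta-galactosidase luminescence from glucocorticoid response element reporter as proxy for Hsp90 function; inhibitor potency where signal loss means Hsp90 inhibition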
[8] = molecular target: T3, RNA-binding protein pos-1 (Caenorhabditis elegans, UniProt G5EF15); assay: disruptors of C. elegans POS-1 RNA interaction – biochemical, fluorescence polarization, dose response (AID 1964);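 also: purified POS-1 fused to maltose binding protein made in E. coli; potency of compounds blocking POS-1 binding to fluorescent RNA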
T3 sequence (G5EF15 whole entry): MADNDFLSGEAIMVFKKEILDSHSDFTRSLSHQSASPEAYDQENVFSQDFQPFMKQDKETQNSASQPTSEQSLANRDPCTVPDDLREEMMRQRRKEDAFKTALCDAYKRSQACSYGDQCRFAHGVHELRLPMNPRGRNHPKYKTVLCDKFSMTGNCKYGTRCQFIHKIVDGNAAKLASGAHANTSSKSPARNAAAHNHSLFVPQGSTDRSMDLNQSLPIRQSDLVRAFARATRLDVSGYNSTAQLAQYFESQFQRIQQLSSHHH

[9] = molecular target: T4, Zinc finger protein mex-5 (Caenorhabditis elegans, UniProt Q9XUB2); assay: potency of MEX-5 RNA-binding blockers – biochemical, C. elegans, fluorescence polarization, dose response (AID 1960)
T4 sequence (Q9XUB2 whole entry): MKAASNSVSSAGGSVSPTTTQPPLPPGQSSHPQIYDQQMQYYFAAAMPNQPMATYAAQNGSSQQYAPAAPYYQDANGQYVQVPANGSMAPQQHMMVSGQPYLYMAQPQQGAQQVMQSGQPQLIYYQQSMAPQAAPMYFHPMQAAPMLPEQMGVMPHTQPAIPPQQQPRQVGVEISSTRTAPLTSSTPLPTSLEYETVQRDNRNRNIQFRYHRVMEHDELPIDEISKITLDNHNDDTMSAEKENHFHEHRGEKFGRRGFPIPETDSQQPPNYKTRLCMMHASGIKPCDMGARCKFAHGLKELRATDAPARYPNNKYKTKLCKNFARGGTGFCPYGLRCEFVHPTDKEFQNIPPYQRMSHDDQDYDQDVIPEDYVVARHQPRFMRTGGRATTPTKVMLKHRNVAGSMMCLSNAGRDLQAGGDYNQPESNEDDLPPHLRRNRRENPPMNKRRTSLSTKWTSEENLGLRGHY

H9c2 = assay: cells; assay type: functional, cell-based; settings: Rattus norvegicus, H9c2, Myocardium;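 also: confirmatory concentration-response retest of ultra-high-throughput screening hits for modulation of myocardial damage; cell death induced by hydrogen peroxide oxidative stress; compound pretreatment for 60 min then peroxide exposure for 2 h; potency is for protecting the cells against peroxide damage rather than for killing them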
[10] = luciferase reporter signal suppression in cells – H4 neuroglioma cells, luminescence, dose response (AID 1990); assay type: functional, cell-based
BJ [11] = assay: BJ-TERT fibroblast viability loss – cell-based, RAS-independent, luminescence, dose response (AID 1933); assay type: functional; settings: Homo sapiens
[12] = Luminescence Cell-Based Dose Response HTS to Identify Inhibitors of 5'UTR Stem-Loop Driven Prion Protein mRNA Translation in H4 Neuroglioblastoma Cells. [Related pubchem assays: 1827 (Project Summary), 1813 (Primary HTS)]; assay type: functional
[13] = alpha-synuclein stem-loop luciferase translation blockers – H4 neuroglioma cells, luminescence, confirmation (AID 1988); assay type: functional, cell-based
BJ [14] = assay: cells; assay type: functional, cell-based; settings: Homo sapiens
BJ [15] = assay: BJ-TERT-LT-ST fibroblast viability loss – cell-based, RAS-independent, luminescence, dose response (AID 1935); assay type: functional; settings: Homo sapiens;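 also: BJ fibroblasts immortalized with TERT plus LT and ST oncogenes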
[16] = DRD fibroblast viability loss – cell-based, non-viral oncogenic, luminescence, dose response (AID 1934); assay type: functional; settings: Homo sapiens
[17] = molecular target: T5, Heat shock factor protein 1 (Mus musculus, UniProt P38532); assay: enhancement of HSF1-driven luciferase signal – cell-based, NIH3T3, luminescence, dose retest, confirmation (AID 435004); assay type: functional;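 also: stress induced by proteasome inhibitor MG132 added 30 min after compound; luciferase reporter driven by HSF1 response element in NIH3T3 cells; actives raise luminescence as potentiators of the MG132 stress response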
T5 sequence (P38532 whole entry): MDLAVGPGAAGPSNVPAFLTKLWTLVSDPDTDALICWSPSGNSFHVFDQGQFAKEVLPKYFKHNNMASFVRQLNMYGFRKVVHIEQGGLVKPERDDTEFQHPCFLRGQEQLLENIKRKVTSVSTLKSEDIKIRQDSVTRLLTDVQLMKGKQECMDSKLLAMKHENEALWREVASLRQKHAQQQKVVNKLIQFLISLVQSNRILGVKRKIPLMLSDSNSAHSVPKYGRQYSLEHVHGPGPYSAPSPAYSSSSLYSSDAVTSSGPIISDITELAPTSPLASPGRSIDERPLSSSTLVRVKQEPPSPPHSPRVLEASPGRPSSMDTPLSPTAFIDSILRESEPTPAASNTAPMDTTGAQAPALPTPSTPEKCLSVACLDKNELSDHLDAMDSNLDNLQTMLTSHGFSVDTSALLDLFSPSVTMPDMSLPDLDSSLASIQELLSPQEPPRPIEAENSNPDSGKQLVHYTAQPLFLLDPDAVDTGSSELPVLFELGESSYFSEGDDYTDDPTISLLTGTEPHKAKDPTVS

BJ [18] = assay: growth inhibition of engineered Ras-driven BJ cells – cell-based, alamar blue fluorescence, cherrypicked samples, dose response (AID 2631); assay type: functional; settings: Homo sapiens;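 also: confirmatory dose-response assay in RAS-dependent BJ fibroblasts engineered with TERT, LT and ST, with cytotoxicity read by fluorescence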
HeLa = assay: ATP-based viability loss in HeLa cells – cell-based, CellTiter-Glo luminescence, cherry-pick samples, cytotoxicity control for MITF activator project, dose response (AID 540259); assay type: functional; settings: Homo sapiens

ATP-dependent molecular chaperone HSP82, sequence (C4YTQ8 whole entry, the tested form may be a part): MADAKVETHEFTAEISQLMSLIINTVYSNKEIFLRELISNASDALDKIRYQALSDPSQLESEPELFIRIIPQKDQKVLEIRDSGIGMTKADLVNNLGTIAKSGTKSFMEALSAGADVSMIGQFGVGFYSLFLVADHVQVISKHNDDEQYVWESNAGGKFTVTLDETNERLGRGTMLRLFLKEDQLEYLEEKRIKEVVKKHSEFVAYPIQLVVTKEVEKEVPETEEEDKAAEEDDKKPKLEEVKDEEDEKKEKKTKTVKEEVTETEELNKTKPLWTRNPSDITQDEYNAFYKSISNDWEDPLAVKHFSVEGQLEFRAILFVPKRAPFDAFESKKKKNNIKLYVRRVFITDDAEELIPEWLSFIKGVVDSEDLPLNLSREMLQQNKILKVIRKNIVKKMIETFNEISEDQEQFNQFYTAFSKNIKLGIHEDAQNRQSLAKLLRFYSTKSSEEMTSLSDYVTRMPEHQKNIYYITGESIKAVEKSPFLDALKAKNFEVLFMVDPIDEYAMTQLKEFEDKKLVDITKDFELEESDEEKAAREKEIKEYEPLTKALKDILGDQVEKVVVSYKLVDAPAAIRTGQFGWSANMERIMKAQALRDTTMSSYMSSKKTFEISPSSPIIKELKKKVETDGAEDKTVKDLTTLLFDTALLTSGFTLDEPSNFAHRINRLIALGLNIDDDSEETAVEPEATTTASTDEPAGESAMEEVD

Row | SMILES | EC50 [1] | EC50 [2] | EC50 [3] | EC50 [4] | EC50 [5] | EC50 [7] | other results
1 | COc1ccc2nc(SCC(C)=O)c(C#N)cc2c1 | > 99 µM (inactive) | 16.5 µM (active) | – | – | – | – | –
2 | CCCC(=O)NC(c1ccco1)c1cc([N+](=O)[O-])c2cccnc2c1O (configuration not stated) | – | – | 20.3 µM (active) | 0.826 µM (active) | > 180 µM (inactive) | > 150 µM (inactive) | AC50 [6]: 2.02 µM (active)
3 | CC1=NN(c2ccccc2)C(=O)/C1=C/c1cc(C)n(C2CC2)c1C | > 99 µM (inactive) | > 99 µM (inactive) | – | – | – | – | –
4 | CCCCOC(=O)Cn1c2ccc(OC)cc2c2nc3ccccc3nc21 | > 99 µM (inactive) | 24.7 µM (inactive) | – | – | – | – | EC50 [8]: > 300 µM (not active); EC50 [9]: > 300 µM (not active)
5 | CC(C)(C)c1ccc(OCCCC(=O)NNC(=O)c2ccccc2O)cc1 | – | – | 51 µM (inconclusive) | > 38 µM (not active) | > 180 µM (inactive) | > 160 µM (inactive) | IC50 (H9c2): > 79 µM (inactive)
6 | O=C(NCc1ccccc1)c1c(Cl)nc(Cl)c(Cl)c1Cl | – | – | – | – | – | – | EC50 [10]: 10.3 µM (active); EC50 (BJ [11]): 6.46 µM (active); EC50 [12]: > 120 µM (not active); EC50 [13]: > 120 µM (not active); EC50 (BJ [14]): 77.2 µM (inconclusive); EC50 (BJ [15]): 7.26 µM (inconclusive); EC50 [16]: 9.83 µM (active); EC50 [17]: 57.8 µM (active); EC50 (BJ [18]): 3.69 µM (active)
7 | O=C1/C(=C/c2cccnc2)CCc2c1[nH]c1ccccc21 | – | – | > 160 µM (inactive) | 1.95 µM (active) | > 180 µM (inactive) | > 150 µM (inactive) | AC50 (HeLa): 18.7 µM (active)
